Reference: patent US20180256673A1, “METHODS FOR TREATING FUNGAL INFECTIONS” (priority 2015, published 2018)
In brackets after ≈: the same amount, converted by molar mass. Like-named read-outs stand apart in the source and are kept apart here.

Experiments:
[1] = tested on: Candida glabrata; experiment: microbe, parasite or virus in culture; format: cell-based
[2] = tested on: Candida orthopsilosis; experiment: Broth microdilution of invasive fungal isolates (CLSI M27-A3/M38-A2); format: cell-based; conditions: 10 isolates
[3] = tested on: C. glabrata ATCC 90030, ATCC 2001; experiment: Broth microdilution MIC (CLSI), Examples 3 and 4; conditions: for MIC: Nakaseomyces glabratus
Experimental: Antifungal susceptibility testing. Candida strains were cultured aerobically at 35° C. on SDA plates or in RPMI 1640 broth (pH 7.0). […] MIC assays were performed in triplicate.

[4] = tested on: C. glabrata vaginal isolates; experiment: Susceptibility testing of VVC clinical isolates at pH 7 and 4 (CLSI M27-A3); format: cell-based, Candida glabrata; conditions: Nakaseomyces glabratus, 21 isolates, read-out: MIC90
[5] = tested on: azole-resistant Candida albicans R357 strain; experiment: microbe, parasite or virus in culture; format: cell-based
[6] = tested on: Aspergillus fumigatus; experiment: Broth microdilution of invasive fungal isolates (CLSI M27-A3/M38-A2), MEC; format: cell-based; conditions: 56 isolates

Compound: CC[C@H](C)C[C@H](C)CCCCCCCCC(=O)N[C@H]1C[C@@H](O)[C@@H](NCCN)NC(=O)[C@@H]2[C@@H](O)CCN2C(=O)[C@H]([C@H](O)CCN)NC(=O)[C@H]([C@H](O)[C@@H](O)c2ccc(O)cc2)NC(=O)[C@@H]2C[C@@H](O)CN2C(=O)[C@H]([C@@H](C)O)NC1=O [CAS, caspofungin]
- Cumulative % of isolates inhibited at MIC 0.03 μg/mL ([1]; 100 isolates): (38.0) %
- Cumulative % of isolates inhibited at MIC 0.06 μg/mL ([1]; 100 isolates): (89.0) %
- Cumulative % of isolates inhibited at MIC 0.12 μg/mL ([1]; 100 isolates): (95.0) %
- Cumulative % of isolates inhibited at MIC 0.25 μg/mL ([1]; 100 isolates): (95.0) %
- Cumulative % of isolates inhibited at MIC 0.5 μg/mL ([1]; 100 isolates): (95.0) %
- Cumulative % of isolates inhibited at MIC 1 μg/mL ([1]; 100 isolates): (95.0) %
- Cumulative % of isolates inhibited at MIC 2 μg/mL ([1]; 100 isolates): (97.0) %
- Cumulative % of isolates inhibited at MIC 4 μg/mL ([1]; 100 isolates): (97.0) %
- Cumulative % of isolates inhibited at MIC 8 μg/mL ([1]; 100 isolates): (100.0) %
- Number of isolates inhibited at MIC 0.03 μg/mL ([1]; 100 isolates): 38
- Number of isolates inhibited at MIC 0.06 μg/mL ([1]; 100 isolates): 51
- Number of isolates inhibited at MIC 0.12 μg/mL ([1]; 100 isolates): 6
- Number of isolates inhibited at MIC 0.25 μg/mL ([1]; 100 isolates): 0
- Number of isolates inhibited at MIC 0.5 μg/mL ([1]; 100 isolates): 0
- Number of isolates inhibited at MIC 1 μg/mL ([1]; 100 isolates): 0
- Number of isolates inhibited at MIC 2 μg/mL ([1]; 100 isolates): 3
- Number of isolates inhibited at MIC 4 μg/mL ([1]; 100 isolates): 0
- Number of isolates inhibited at MIC 8 μg/mL ([1]; 100 isolates): 3
- MIC50 ([1]; Nakaseomyces glabratus): 0.06 µg/mL (≈ 0.0549 µM)
- MIC90 ([1]; Nakaseomyces glabratus): 0.12 µg/mL (≈ 0.11 µM)
- MIC ([1]; Nakaseomyces glabratus, read-out: MIC according to CLSI method, isolate from CA, USA, fks1 HS1 S629P): 8 µg/mL (≈ 7.32 µM)
- MIC ([1]; Nakaseomyces glabratus, read-out: MIC according to CLSI method, isolate from Canada (first line), fks1 HS1 S629P, fks2 HS1 S663P): > 8 µg/mL
- MIC ([1]; Nakaseomyces glabratus, read-out: MIC according to CLSI method, isolate from Canada (second line), fks1 HS1 S629P, fks2 HS1 S663P): > 8 µg/mL
- MIC ([1]; Nakaseomyces glabratus, read-out: MIC according to CLSI method, isolate from Israel, fks2 HS1 F659S): 2 µg/mL (≈ 1.83 µM)
- MIC ([1]; Nakaseomyces glabratus, read-out: MIC according to CLSI method, isolate from NY, USA, fks2 HS1 S663P): 2 µg/mL (≈ 1.83 µM)
- MIC ([1]; Nakaseomyces glabratus, read-out: MIC results, two isolates from same patient, Edmonton, Canada, fks1 HS1 S629P and fks2 HS1 S663P): > 8 µg/mL
- Cumulative % of isolates inhibited at MIC 0.06 μg/mL [2]: (10.0) %
- Cumulative % of isolates inhibited at MIC 0.12 μg/mL [2]: (40.0) %
- Cumulative % of isolates inhibited at MIC 0.25 μg/mL [2]: (70.0) %
- Cumulative % of isolates inhibited at MIC 0.5 μg/mL [2]: (100.0) %
- Number of isolates inhibited at MIC 0.06 μg/mL [2]: 1
- Number of isolates inhibited at MIC 0.12 μg/mL [2]: 3
- Number of isolates inhibited at MIC 0.25 μg/mL [2]: 3
- Number of isolates inhibited at MIC 0.5 μg/mL [2]: 3
- MIC50 ([2]; Lodderomyces orthopsilosis, read-out: MIC50): 0.25 µg/mL (≈ 0.229 µM)
- MIC90 ([2]; Lodderomyces orthopsilosis, read-out: MIC90): 0.5 µg/mL (≈ 0.457 µM)
- Broth MIC ([3]; ATCC 2001 wild-type, 24 h, ~50% inhibition): 0.25 µg/mL
- MIC ([3]; 24 h, read-out: Broth MIC): 0.25 µg/mL (≈ 0.229 µM)
- MIC ([3]; ATCC2001|ATCC90030, ATCC 2001 spontaneous mutant, Fks2 HS1 D666N): 0.25 µg/mL (≈ 0.229 µM)
- MIC ([3]; ATCC2001|ATCC90030, ATCC 2001 spontaneous mutant, Fks2 HS1 D666Y): 0.5 µg/mL (≈ 0.457 µM)
- MIC ([3]; ATCC2001|ATCC90030, ATCC 2001 spontaneous mutant, Fks2 HS1 R665G): 0.5 µg/mL (≈ 0.457 µM)
- MIC ([3]; ATCC2001|ATCC90030, ATCC 2001 spontaneous mutant, Fks2 HS1 S663F): 1 µg/mL (≈ 0.915 µM)
- MIC ([3]; ATCC2001|ATCC90030, ATCC 2001 spontaneous mutant, Fks2 HS1 ΔF659): 16 µg/mL (≈ 14.6 µM)
- MIC ([3]; ATCC2001|ATCC90030, ATCC 2001 spontaneous mutant, Fks2 HS2 R1378S): 0.25 µg/mL (≈ 0.229 µM)
- MIC ([3]; ATCC2001|ATCC90030, ATCC 90030 spontaneous mutant, Fks2 HS1 D666H): 1 µg/mL (≈ 0.915 µM)
- MIC ([3]; ATCC2001|ATCC90030, ATCC 90030 spontaneous mutant, Fks2 HS1 ΔF659): 4 µg/mL (≈ 3.66 µM)
- MIC90 ([4]; pH 4, 24 h): 1 µg/mL (≈ 0.915 µM)
- MIC90 ([4]; pH 4, 48 h): 2 µg/mL (≈ 1.83 µM)
- MIC90 ([4]; pH 7, 24 h): 1 µg/mL (≈ 0.915 µM)
- MIC90 ([4]; pH 7, 48 h): 2 µg/mL (≈ 1.83 µM)
- Susceptibility (CLSI) ([5]; C. albicans R357): S
- MIC ([5]; Candida albicans): 0.25 µg/mL (≈ 0.229 µM)
- Cumulative % of isolates inhibited at MEC 0.015 μg/mL [6]: (32.1) %
- Cumulative % of isolates inhibited at MEC 0.03 μg/mL [6]: (94.6) %
- Cumulative % of isolates inhibited at MEC 0.06 μg/mL [6]: (100.0) %
- Number of isolates inhibited at MEC 0.015 μg/mL [6]: 18
- Number of isolates inhibited at MEC 0.03 μg/mL [6]: 35
- Number of isolates inhibited at MEC 0.06 μg/mL [6]: 3
